Columns and labels:
[1] = swine
Description: The invention is further described more in detail by the following examples. In the examples a device according to FIG. 2 was used. The electrodes are made of a carbon fiber textile, onto which a hydrophobic micro-porous layer of teflon is fitted. As model agent was used tacrine, which is a cationic drug. The chamber section 13a, the electrolyte space, comprised a 0.15 M aqueous solution of sodium sulphate and the chamber section 13b, the space comprising the active agent, comprised a 0.15 M aqueous solution of sodium chloride, which corresponds to a physiological salt solution. […] The membrane 15 was either a synthetic membrane (UC 101T) or swine skin. In the experiments were used Smopex®-ion exchanging fibres, made by Smoptech (Johnson Matthey).

[2] = in vivo; cited from earlier work

Compound: Nc1c2c(nc3ccccc13)CCCC2 [tacrine]
- passive flow [1]: 1.99 μg cm^−2h^−1
- passive flow (slope) [1]: 1.81 μg cm^−2h^−1
- clearance CL [2]: 150 dm^3h^−1
- therapeutic window [2]: 5-30 μg dm^−3
